This note sets out measurements from US11945784B2, “IRE1 small molecule inhibitors” (Cornell University, priority 2018, dated 2024).

Test [1] addresses T1, IRE1α (Homo sapiens (Human), UniProt O75460). Description: In vitro luciferase assay (IRE1α Endoribonuclease Nanoluciferase Assay). It is filed as cell-based. Particulars: 293T cells, XBP1 luciferase reporter. On the procedure:
Compounds disclosed herein were assessed for disruption of IRE-1 signaling using a IRE1α Endoribonuclease Nanoluciferase Assay. Briefly, 2.5×10^6 293T cells were seeded in a 10 cm^2 tissue culture plate. About 24 hours later, the cells were transfected with Effectene. In a 15 mL Tube, the following was added: 2 μg XBP1 luciferase reporter plasmid (PGK-Luc2-P2A-XBP1u-Nanoluciferase-PEST); 300 μl EC buffer; and 16 μl Enhancer, followed by incubation at room temp for 5 minutes. Next, 60 μl Effectene (Qiagen 301427) was added, followed by incubation at room temperature for 10 minutes. 2.6 mL cDMEM media was added. Old media was aspirated from the cells, followed by addition of 7 mL fresh media. Full transfection mixture was added dropwise to cells. Cells were incubated for 6 hours, followed by trypsinization, centrifugation and resuspension in 11 mL media. 100 uL of cells were plated per a well in a 96 well plate. A day later, ER stressors of choice+/−inhibitors were added. To harvest, media was aspirated from cells completely, then 50 uL 1× passive lysis buffer (Promega: E1941) was added per well and put on shaker (300 rpm) for 30 minutes at room temperature. Cells were centrifuged, and 15 uL sample per well was added to a new, opaque white 384 well plate (Corning 3570). 15 uL OneGlo (nanoluciferase kit, Promega N1630) was added. Plates were spun down, placed on shaker (300 rpm) for 10 minutes. Plates were read on luminometer, 1000 ms integration time per well. 15 uL Stop and Glo (nanoluciferase kit) was added. Plates were spun down, placed on shaker (300 rpm) for 10 minutes. Plates were read on luminometer, 1000 ms second integration time per well. Recordings are provided below in Table 4
In general terms: In a reporter assay the amount or activity of a reporter protein is the signal.

The target in test [2] is T1, IRE1α. Description: In vitro FRET assay. Particulars: XBP1 RNA probe. It is filed as biochemical. The protocol:
In vitro FRET assay was performed to evaluate the ability of select compounds to inhibit IRE1, the results of which are summarized in Table 3. To perform the in vitro FRET assay, 1× complete assay buffer (CAB; […], 50 mM sodium citrate pH 7.15, 1 mM magnesium acetate, 0.02% tween 20) was used to dilute SignalChem IRE1α protein to a final concentration of 2 nM. Selected compounds were serially diluted with DMSO in a non-binding black 384-well plate for a total of 15 ul in each well. 2 ul of the serially diluted compound or DMSO control were then added to new wells containing 98 ul of 1×CAB, for a total volume of 100 ul, 10 ul of which were then transferred to wells of a new plate. 5 ul of the diluted IRE1α was then added to each well. 5 ul of a […] XBP1 RNA probe was then added to each well. Fluorescence was then read over 30 minutes in kinetic mode (485/515 nm).
Two RNA probes were used, XBP1 wildtype (SEQ ID NO: 2) which is able to be spliced by active IRE1α or XBP1 mutant (SEQ ID NO: 3) which is unable to be spliced. Each probe contained a 5′ 6-FAM modification and a 3′ IOWA Black FQ modification.
A second FRET assay was performed to assess ATP-mediated inhibition. In this case, compounds and IRE1α were prepared and combined as discussed above, with the addition of ATP up to 1 mM final concentration. This mixture was incubated at room temperature for 60 minutes and then 5 ul of 400 nM XBP1 wildtype or mutant RNA probe was added. Plates were then read over 30 minutes in kinetic mode (485/515 nm) and rate of fluorescence increase calculated for different compound dilutions to determine IC50 (Table 3).

Structures are written as SMILES. A value given as a limit tells only on which side of the number the result lay.

T1 sequence (O75460 19-977): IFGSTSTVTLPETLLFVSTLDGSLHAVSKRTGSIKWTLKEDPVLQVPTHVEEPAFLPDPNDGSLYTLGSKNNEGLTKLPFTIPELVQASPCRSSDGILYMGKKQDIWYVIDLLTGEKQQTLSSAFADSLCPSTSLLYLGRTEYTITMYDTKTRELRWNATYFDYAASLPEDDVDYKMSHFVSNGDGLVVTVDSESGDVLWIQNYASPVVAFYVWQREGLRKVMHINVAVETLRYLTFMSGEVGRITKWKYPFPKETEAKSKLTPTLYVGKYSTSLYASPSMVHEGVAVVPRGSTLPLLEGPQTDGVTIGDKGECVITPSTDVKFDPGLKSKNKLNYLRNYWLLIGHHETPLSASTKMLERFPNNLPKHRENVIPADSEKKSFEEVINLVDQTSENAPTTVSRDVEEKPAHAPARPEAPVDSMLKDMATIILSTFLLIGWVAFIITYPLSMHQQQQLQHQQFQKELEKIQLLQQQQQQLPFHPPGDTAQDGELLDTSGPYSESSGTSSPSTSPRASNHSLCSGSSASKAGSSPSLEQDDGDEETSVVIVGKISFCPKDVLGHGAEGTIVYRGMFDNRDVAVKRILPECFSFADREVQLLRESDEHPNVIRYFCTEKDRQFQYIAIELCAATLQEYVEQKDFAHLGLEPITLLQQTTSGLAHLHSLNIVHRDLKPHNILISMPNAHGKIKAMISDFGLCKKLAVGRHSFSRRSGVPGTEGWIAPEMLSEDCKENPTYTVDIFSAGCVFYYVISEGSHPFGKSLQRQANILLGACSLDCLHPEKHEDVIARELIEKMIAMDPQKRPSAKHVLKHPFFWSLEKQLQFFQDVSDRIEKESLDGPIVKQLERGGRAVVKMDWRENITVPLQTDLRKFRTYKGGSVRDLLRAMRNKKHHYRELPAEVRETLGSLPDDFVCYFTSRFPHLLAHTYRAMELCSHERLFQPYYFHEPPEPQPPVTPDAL

In turn, `CNC1CCC(Nc2ncc(/C=C/c3cc(F)c(NS(=O)(=O)c4ccccc4Cl)nc3OC)cn2)CC1` (stereo not shown) [Compound 59, 2-chloro-N-(3-fluoro-6-methoxy-5-((E)-2-(2-(((1r,4r)-4-(methylamino)cyclohexyl)amino)pyrimidin-5-yl)vinyl)pyridin-2-yl)benzenesulfonamide] gave an EC50 in test [1] of 50 to 100 nM.
Same read-out and setting: then `Cc1nc(NS(=O)(=O)c2ccccc2Cl)c(F)cc1/C=C/c1cnc(NC2CCC(N)CC2)nc1` (stereo not shown) [Compound 58, N-(5-((E)-2-(2-(((1r,4r)-4-aminocyclohexyl)amino)pyrimidin-5-yl)vinyl)-3-fluoro-6-methylpyridin-2-yl)-2-chlorobenzenesulfonamide], with 50 to 100 nM.
Take `COc1nc(NS(=O)(=O)c2ccccc2Cl)ccc1/C=C/c1cnc(NC2CCC(O)CC2)nc1` (stereo not shown) [Compound 11, 2-chloro-N-(5-((E)-2-(2-(((1r,4r)-4-hydroxycyclohexyl)amino)pyrimidin-5-yl)vinyl)-6-methoxypyridin-2-yl)benzenesulfonamide]: the half-maximal inhibitory concentration (IC50) in test [2] fell in the range of 1 to 5 nM.
`CN(C)C1CCC(Nc2ncc(/C=C/c3ccc(NS(=O)(=O)c4cccc(Cl)c4Cl)nc3)cn2)CC1` (stereo not shown) [Compound 63, 2,3-dichloro-N-(5-((E)-2-(2-(((1r,4r)-4-(dimethylamino)cyclohexyl)amino)pyrimidin-5-yl)vinyl)pyridin-2-yl)benzenesulfonamide]: the EC50 in test [1] was not above 5 nM.
Same read-out and setting: to `COc1nc(NS(=O)(=O)c2cnccc2Cl)ccc1/C=C/c1cnc(NC2CCC(N(C)C)CC2)nc1` (stereo not shown) [Compound 56, 4-chloro-N-(5-((E)-2-(2-(((1r,4r)-4-(dimethylamino)cyclohexyl)amino)pyrimidin-5-yl)vinyl)-6-methoxypyridin-2-yl)pyridine-3-sulfonamide] belongs 50 to 100 nM; to `COc1nc(NS(=O)(=O)c2ccccc2Cl)ccc1/C=C/c1cnc(NC2CCC(N3CCSCC3)CC2)nc1` (stereo not shown) [Compound 64, 2-chloro-N-(6-methoxy-5-((E)-2-(2-(((1r,4r)-4-thiomorpholinocyclohexyl)amino)pyrimidin-5-yl)vinyl)pyridin-2-yl)benzenesulfonamide], not above 5 nM.
As to `CN(C)C1CCC(Nc2ncc(C=Cc3cnc(NS(=O)(=O)c4ccccc4Cl)nc3)cn2)CC1` (stereo not shown) [Compound 40, 2-chloro-N-(5-(2-(2-(((1r,4r)-4-(dimethylamino)cyclohexyl)amino)pyrimidin-5-yl)vinyl)pyrimidin-2-yl)benzenesulfonamide], in test [2], the IC50 was not above 1 nM.
With `COc1cc(NS(=O)(=O)c2ccccc2Cl)c(F)cc1/C=C/c1cnc(NC2CCC(N(C)C)CC2)nc1` (stereo not shown) [Compound 67, 2-chloro-N-(4-((E)-2-(2-(((1r,4r)-4-(dimethylamino)cyclohexyl)amino)pyrimidin-5-yl)vinyl)-2-fluoro-5-methoxyphenyl)benzenesulfonamide], the EC50 in test [1] was not above 5 nM.
On the same count and under the same terms, to `COc1cc(NS(=O)(=O)c2cnccc2Cl)ccc1/C=C/c1cnc(NC2CCC(N(C)C)CC2)nc1` (stereo not shown) [Compound 65, 4-chloro-N-(4-((E)-2-(2-(((1r,4r)-4-(dimethylamino)cyclohexyl)amino)pyrimidin-5-yl)vinyl)-3-methoxyphenyl)pyridine-3-sulfonamide] belongs not above 5 nM.
Same read-out and setting: then `NC1CCC(Nc2ncc(/C=C/c3ccc(NS(=O)(=O)c4ccccc4Cl)c(F)c3)cn2)CC1` (stereo not shown) [Compound 3, N-(4-((E)-2-(2-(((1r,4r)-4-aminocyclohexyl)amino)pyrimidin-5-yl)vinyl)-2-fluorophenyl)-2-chlorobenzenesulfonamide], with not above 5 nM.
Consider `N[C@H]1CC[C@H](Nc2ncc(CCc3ccc(NS(=O)(=O)c4ccccc4Cl)nn3)cn2)CC1` [Compound 7, N-(6-(2-(2-(((1r,4r)-4-aminocyclohexyl)amino)pyrimidin-5-yl)ethyl)pyridazin-3-yl)-2-chlorobenzenesulfonamide], for which the IC50 in test [2] is 1 to 5 nM.
Same read-out and setting: to `Cc1nc(NS(=O)(=O)c2ccccc2Cl)ccc1CCc1cnc(NC2CCC(O)CC2)nc1` (stereo not shown) [Compound 20, 2-chloro-N-(5-(2-(2-(((1r,4r)-4-hydroxycyclohexyl)amino)pyrimidin-5-yl)ethyl)-6-methylpyridin-2-yl)benzenesulfonamide] belongs 100 to 1000 nM; to `COc1nc(NS(=O)(=O)c2ccccc2Cl)ccc1CCc1cnc(NC2CCC(O)CC2)nc1` (stereo not shown) [Compound 12, 2-chloro-N-(5-(2-(2-(((1r,4r)-4-hydroxycyclohexyl)amino)pyrimidin-5-yl)ethyl)-6-methoxypyridin-2-yl)benzenesulfonamide], 5 to 50 nM.
For the compound `CN(C)C1CCC(Nc2ncc(/C=C/c3ccc(NS(=O)(=O)c4ccccc4Cl)nn3)cn2)CC1` (stereo not shown) [Compound 52, 2-chloro-N-(6-((E)-2-(2-(((1r,4r)-4-(dimethylamino)cyclohexyl)amino)pyrimidin-5-yl)vinyl)pyridazin-3-yl)benzenesulfonamide], the EC50 in test [1] was 5 to 50 nM.
In test [1], `CN(C)C1CCC(Nc2ncc(/C=C/c3ccc(NS(=O)(=O)c4ccc(F)cc4Cl)nc3)cn2)CC1` (stereo not shown) [Compound 61, 2-chloro-N-(5-((E)-2-(2-(((1r,4r)-4-(dimethylamino)cyclohexyl)amino)pyrimidin-5-yl)vinyl)pyridin-2-yl)-4-fluorobenzenesulfonamide] returned an EC50 not above 5 nM.
`COc1nc(NS(=O)(=O)c2ccccc2Cl)c(F)cc1/C=C/c1cnc(NC2CCC(N)CC2)nc1` (stereo not shown) [Compound 54, N-(5-((E)-2-(2-(((1r,4r)-4-aminocyclohexyl)amino)pyrimidin-5-yl)vinyl)-3-fluoro-6-methoxypyridin-2-yl)-2-chlorobenzenesulfonamide] displayed a concentration giving a half-maximal response (EC50) in test [1] of 50 to 100 nM.
Same read-out and setting: to `Cc1nc(NS(=O)(=O)c2cnccc2Cl)ccc1/C=C/c1cnc(NC2CCC(N(C)C)CC2)nc1` (stereo not shown) [Compound 62, 4-chloro-N-(5-((E)-2-(2-(((1r,4r)-4-(dimethylamino)cyclohexyl)amino)pyrimidin-5-yl)vinyl)-6-methylpyridin-2-yl)pyridine-3-sulfonamide] belongs 50 to 100 nM; to `CN(C)C1CCC(Nc2ncc(/C=C/c3ccc(NS(=O)(=O)c4cccc(F)c4Cl)nc3)cn2)CC1` (stereo not shown) [Compound 68, 2-chloro-N-(5-((E)-2-(2-(((1r,4r)-4-(dimethylamino)cyclohexyl)amino)pyrimidin-5-yl)vinyl)pyridin-2-yl)-3-fluorobenzenesulfonamide], not above 5 nM.
Same read-out and setting: then `COc1nc(NS(=O)(=O)c2cccc(F)c2Cl)ccc1/C=C/c1cnc(NC2CCC(N(C)C)CC2)nc1` (single isomer, unassigned) [Compound 53, 2-chloro-N-(5-((E)-2-(2-(((1r,4r)-4-(dimethylamino)cyclohexyl)amino)pyrimidin-5-yl)vinyl)-6-methoxypyridin-2-yl)-3-fluorobenzenesulfonamide], with 50 to 100 nM; and `COc1c(/C=C/c2cnc(NC3CCC(N(C)C)CC3)nc2)ccc(NS(=O)(=O)c2ccccc2Cl)c1F` (stereo not shown) [Compound 66, 2-chloro-N-(4-((E)-2-(2-(((1r,4r)-4-(dimethylamino)cyclohexyl)amino)pyrimidin-5-yl)vinyl)-2-fluoro-3-methoxyphenyl)benzenesulfonamide], with not above 5 nM.
On the same count and under the same terms, to `COc1nc(NS(=O)(=O)c2ccccc2Cl)ccc1/C=C/c1cnc(NC2CCC(N3CCOCC3)CC2)nc1` (stereo not shown) [Compound 57, 2-chloro-N-(6-methoxy-5-((E)-2-(2-(((1r,4r)-4-morpholinocyclohexyl)amino)pyrimidin-5-yl)vinyl)pyridin-2-yl)benzenesulfonamide] belongs not above 5 nM; to `COc1nc(NS(=O)(=O)c2ccccc2Cl)ccc1/C=C/c1cnc(NC2CCC(N3CCCCC3)CC2)nc1` (stereo not shown) [Compound 60, 2-chloro-N-(6-methoxy-5-((E)-2-(2-(((1r,4r)-4-(piperidin-1-yl)cyclohexyl)amino)pyrimidin-5-yl)vinyl)pyridin-2-yl)benzenesulfonamide], not above 5 nM.

What is called EC50 is the concentration needed to bring the measured effect to its halfway point. A word on the IC50: it is the concentration that inhibits the measured activity by half.
